Source: patent publication US10131619B2, “α-Asary-laldehyde ester, preparation method therefor, and application thereof” (NORTHWEST UNIVERSITY, priority 2014, dated 2018)
Marks after values point to notes of the source that are not given here.

Key:
[1] = test system: 3-mercaptopropionic acid-induced epilepsy mice model; test: 3-mercaptopropionic acid-induced epilepsy experimental model; format: in vivo; settings: for clonic seizures / latency / mortality rate / tonic seizures: n=6
Text: (4) 3-mercaptopropionic Acid-induced Epilepsy Experimental Model

[2] = test system: pentylenetetrazole-induced epilepsy mice model; test: Pentylenetetrazole-induced epilepsy experimental model; settings: for clonic seizures / latency / mortality rate / tonic seizures: n=6
Method: In order to deduce the possible anticonvulsant mechanism of α-Asaronol 3,4,5-trimethoxycinnamate, in this study, pentylenetetrazole, 3-mercaptopropionic acid and other chemical test modes were used to initially evaluate the anticonvulsant activity of the test compound (i.g: 160 mg/kg, 80 mg/kg, 40 mg/kg).
(3) Pentylenetetrazole-induced Epilepsy Experimental Model
Procedure: mice were randomly divided into five groups: treatment group (i.g: 160 mg/kg, 80 mg/kg, 40 mg/kg), control group and blank group (n=6). The treatment group was intragastrically administrated with the test compound, the control group with the positive drug carbamazepine, and the blank group with physiological saline. After 30 minutes, the mice were intragastrically administrated with pentylenetetrazole at 200 mg/kg. Each test animal was placed in one cage and observed for 60 minutes. The latency of clonic seizures, the number of clonic seizures, the number of tonic seizures, and the number of deaths for mice of each group were recorded.

[3] = test system: mice; test: Neurotoxicity test (Rotarod test); format: in vivo
Method: (§1) The antiepileptic pharmacological tests were carried out using the anti-epileptic drug development program implemented by the National Institutes of Health (NIH), comprising the Maximal Electroshock Seizure (MES) for evaluating antiepileptic activity and the Rotarodtest for examining neurotoxicity. In order to further study and evaluate the pharmacological mechanism of anticonvulsant effect in different chemical models, two classic chemical model pentarotetrazole and 3-mercaptopropionic acid were used.
(§2) Procedure: experimental mice were place on a rotating bar fatigue device rotating at 16 revolutions per minute at 0.25 h, 0.5 h, 1 h, and 2 h after intragastric administration, respectively. […] According to the dosing regimen, concentration gradient was designed and the mice was administered with the test compound at different concentration gradient and observed for the anticonvulsant activity. Half toxic dose (TD50) was calculated according to the following equation: TD50=1 g^−1[Xm−i(ΣP−0.5)] SX50=i(ΣP−σP^2/n−1)^1/2 • 95% confidence limit for TD50=1 g^−1(1 gTD50±1.96 SX50) • wherein the meanings of the symbols in the equation are as follows: • Xm common logarithm for the maximum dose; • i common logarithm for the ratio between doses • p positive rate for each group, expressed in decimal places • n the number of animals per group • SX50 standard error of 1 gTD50

[4] = Neurotoxicity test (Rotarod test); format: in vivo; settings: KM, mouse, in vivo, po
Method: as §1, §2

[5] = test system: KM mice; test: Maximal Electroshock Seizure (MES) test; format: in vivo; settings: for MES: 6 mice
Method: as §1
(1) Maximal Electroshock Seizure (MES)
Procedure: KM mice were subjected to the following preliminary screening before they were tested, and only qualified mice were screened for the next experiment. The screening method was performed as follows: the day before the test, the test mice electrically stimulated at 15V, 60 Hz, wherein two electrodes were clamped in each ear of the mice and powered for 0.45 seconds. Mice with hind limb rigidity were included in the experimental mice and used for later experiments. The Maximal Electroshock Seizure tolerance test was performed as follows: mice were administered intragastrically with the test compound after it is dissolved, and then at 0.25 h, 0.5 h, 1 h, 2 h, 3 h and 4 h after the administration, stimulated with the electrodes in their ears at 15V, 60 Hz electric stimulation for 0.45 s, respectively. […] According to the dosing regimen, concentration gradient was designed and the mice were administered with the test compound at different concentration gradient and observed for the anticonvulsant activity. Finally, the half effective dose of the test compound at the maximum anticonvulsant activity was calculated according to the following equation: ED50=1 g^−1[Xm−i(ΣP−0.5)] SX50=i(ΣP−ΣP^2/n−1)^1/2 • 95% confidence limit for ED50=1 g^−1(1 gED50±1.96 SX50) • wherein the meanings of the symbols in the equation are as follows: • Xm common logarithm for the maximum dose; • i common logarithm for the ratio between doses • p positive rate for each group, expressed in decimal places • n the number of animals per group • SX50 standard error of 1 gED50

[6] = test system: mice; settings: Wang S. S. 1995; cited from earlier work

COc1cc(OC)c(OC)cc1/C=C/COC(=O)/C=C/c1cc(OC)c(OC)c(OC)c1
effect on inhibiting the tonic seizure and reducing the mortality compared with carbamazepine ([1]; 160 mg/kg, 80 mg/kg): comparable effect | time of clonic seizure compared with the physiological saline group ([1]; 160 mg/kg, 80 mg/kg, p<0.05): significantly prolong | clonic seizures ([1]; i.g. 40 mg/kg): 100% | latency ([1]; i.g. 40 mg/kg): 185.3 ± 39.8 s | mortality rate ([1]; i.g. 40 mg/kg): 50% | tonic seizures ([1]; i.g. 40 mg/kg): 50% | clonic seizures ([1]; i.g. 80 mg/kg): 83.3% | latency ([1]; i.g. 80 mg/kg): 192.8 ± 85.1 s | mortality rate ([1]; i.g. 80 mg/kg): 33.3% | tonic seizures ([1]; i.g. 80 mg/kg): 33.3% | latency ([1]; i.g. 160 mg/kg, 30 min before 3-mercaptopropionic acid 60 mg/kg): 241.5 ± 80.4 s | clonic seizures ([1]; i.g. 160 mg/kg): 50% | mortality rate ([1]; i.g. 160 mg/kg): 33.3% | tonic seizures ([1]; i.g. 160 mg/kg): 33.3% | 3-mercaptopropionic acid-induced seizures (in words) ([1]; mouse, in vivo): moderately reduce | time of clonic seizure compared with the physiological saline group ([2]; 160 mg/kg, 80 mg/kg, 40 mg/kg, p<0.05): significantly prolong | effect on inhibiting the tonic seizure and reducing the mortality compared with carbamazepine ([2]; at the same dose): comparable effect | clonic seizures ([2]; i.g. 40 mg/kg): 100% | latency ([2]; i.g. 40 mg/kg): 205.6 ± 40.5 s | mortality rate ([2]; i.g. 40 mg/kg): 100% | tonic seizures ([2]; i.g. 40 mg/kg): 50% | clonic seizures ([2]; i.g. 80 mg/kg): 83.3% | latency ([2]; i.g. 80 mg/kg): 253.6 ± 58.2 s | mortality rate ([2]; i.g. 80 mg/kg): 66.7% | tonic seizures ([2]; i.g. 80 mg/kg): 33.3% | latency ([2]; i.g. 160 mg/kg, 30 min before pentylenetetrazole 200 mg/kg): 370.0 ± 84.8 s | clonic seizures ([2]; i.g. 160 mg/kg): 50% | mortality rate ([2]; i.g. 160 mg/kg): 16.7% | tonic seizures ([2]; i.g. 160 mg/kg): 33.3% | PI, protection index (TD50/ED50) ([3]; mice, i.g., rotarod TD50 / MES ED50): 10.4 | toxicity (in words) ([3]; mouse, in vivo): did not show significant toxicity | TD50 [4]: 940 mg/kg | ED50 ([5]; Mus musculus, po, MES, mice, i.g., 95% confidence limit 63.1-128.8, read-out: ED50 (half effective dose)): 90.3 mg/kg | MES ([5]; i.g. 40 mg/kg, 0.25 h): 4/6 | MES ([5]; i.g. 40 mg/kg, 0.5 h): 5/6 | MES ([5]; i.g. 40 mg/kg, 1 h): 6/6 | MES ([5]; i.g. 40 mg/kg, 2 h): 6/6 | MES ([5]; i.g. 40 mg/kg, 3 h): 6/6 | MES ([5]; i.g. 40 mg/kg, 4 h): 6/6 | MES ([5]; i.g. 56 mg/kg, 0.25 h): 3/6 | MES ([5]; i.g. 56 mg/kg, 0.5 h): 4/6 | MES ([5]; i.g. 56 mg/kg, 1 h): 4/6 | MES ([5]; i.g. 56 mg/kg, 2 h): 5/6 | MES ([5]; i.g. 56 mg/kg, 3 h): 5/6 | MES ([5]; i.g. 56 mg/kg, 4 h): 5/6 | MES ([5]; i.g. 78 mg/kg, 0.25 h): 3/6 | MES ([5]; i.g. 78 mg/kg, 0.5 h): 3/6 | MES ([5]; i.g. 78 mg/kg, 1 h): 3/6 | MES ([5]; i.g. 78 mg/kg, 2 h): 3/6 | MES ([5]; i.g. 78 mg/kg, 3 h): 4/6 | MES ([5]; i.g. 78 mg/kg, 4 h): 4/6 | MES ([5]; i.g. 110 mg/kg, 0.25 h): 2/6 | MES ([5]; i.g. 110 mg/kg, 0.5 h): 1/6 | MES ([5]; i.g. 110 mg/kg, 1 h): 1/6 | MES ([5]; i.g. 110 mg/kg, 2 h): 2/6 | MES ([5]; i.g. 110 mg/kg, 3 h): 3/6 | MES ([5]; i.g. 110 mg/kg, 4 h): 3/6 | MES ([5]; i.g. 154 mg/kg, 0.25 h after administration): 1/6^c | MES ([5]; i.g. 154 mg/kg, 0.5 h): 0 | MES ([5]; i.g. 154 mg/kg, 1 h): 1/6 | MES ([5]; i.g. 154 mg/kg, 2 h): 1/6 | MES ([5]; i.g. 154 mg/kg, 3 h): 3/6 | MES ([5]; i.g. 154 mg/kg, 4 h): 3/6 | anticonvulsant activity in the Maximal Electroshock Seizure test (in words) ([5]; mice, i.g.): good anticonvulsant activity

COC(=O)C=Cc1cc(OC)c(OC)c(OC)c1 [M-TMCA, methyl 3,4,5-trimethoxycinnamic acid]
time of pentobarbital sodium-induced sleep in mice [6]: prolong

COc1ccc(C=CC(=O)O)cc1 [PMCA, p-methoxycinnamic acid]
time of pentobarbital sodium-induced sleep in mice [6]: prolong

COc1cc(C=CC(=O)O)cc(OC)c1OC [TMCA, 3,4,5-trimethoxycinnamic acid]
time of pentobarbital sodium-induced sleep in mice [6]: prolong

NC(=O)N1c2ccccc2C=Cc2ccccc21 [carbamazepine, reference compound]
clonic seizures ([1]; i.g. 83 mg/kg): 100% | latency ([1]; i.g. 83 mg/kg): 277.2 ± 93.1 s | mortality rate ([1]; i.g. 83 mg/kg): 33.3% | tonic seizures ([1]; i.g. 83 mg/kg): 33.3% | clonic seizures ([2]; i.g. 83 mg/kg): 100% | latency ([2]; i.g. 83 mg/kg): 476.8 ± 100.5 s | mortality rate ([2]; i.g. 83 mg/kg): 50% | tonic seizures ([2]; i.g. 83 mg/kg): 33.3%
